According to ChEMBL document CHEMBL1201862, “PubChem BioAssay data set” (2004):
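In this assay, cells in 96-well plates receive the compound at five concentrations for 48 hours. Endpoints are linearly interpolated between the surrounding concentrations. GI50 = concentration required for 50% inhibition of growth.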 The source made the active and inactive calls. Cut-off read from the data, not from the text of the source: active = GI50 up to about 1.1 µM and inactive = higher.

What was measured:
Assay in all cases: NCI tumour cell line growth inhibition, 48 h
[1] = system: ACHN
[2] = system: HCT-116
[3] = system: EKVX
[4] = system: NCI-H226
[5] = system: HL-60
[6] = system: SR
[7] = system: SK-MEL-28
[8] = system: SF-268
[9] = system: KM12
[10] = system: NCI-H23
[11] = system: MCF7
[12] = system: Hs-578T
[13] = system: CAKI-1
[14] = system: SF-295
[15] = system: CCRF-CEM
[16] = system: SK-OV-3
[17] = system: UACC-62
[18] = system: OVCAR-3
[19] = system: TK-10
[20] = system: U-251

| SMILES | GI50 [1] | GI50 [2] | GI50 [3] | GI50 [4] | GI50 [5] | GI50 [6] | GI50 [7] | GI50 [8] | GI50 [9] | GI50 [10] | GI50 [11] | GI50 [12] | GI50 [13] | GI50 [14] | GI50 [15] | GI50 [16] | GI50 [17] | GI50 [18] | GI50 [19] | GI50 [20] |
| --- | --- | --- | --- | --- | --- | --- | --- | --- | --- | --- | --- | --- | --- | --- | --- | --- | --- | --- | --- | --- |
| C/C(=C/CNc1ncnc2c1ncn2CCC#N)CO | > 100 µM (inactive) | > 100 µM (inactive) | > 100 µM (inactive) | > 100 µM (inactive) | > 100 µM (inactive) | > 100 µM (inactive) | > 100 µM (inactive) | > 100 µM (inactive) | > 100 µM (inactive) | > 100 µM (inactive) | > 100 µM (inactive) | > 100 µM (inactive) | > 100 µM (inactive) | > 100 µM (inactive) | > 100 µM (inactive) | > 100 µM (inactive) | > 100 µM (inactive) | > 100 µM (inactive) | > 100 µM (inactive) | – |
| Cn1/c(=N\S(=O)(=O)c2ccccc2)[nH]c2ccccc21 | > 100 µM (inactive) | > 100 µM (inactive) | > 100 µM (inactive) | > 100 µM (inactive) | > 100 µM (inactive) | > 100 µM (inactive) | > 100 µM (inactive) | 58.6 µM (inactive) | > 100 µM (inactive) | > 100 µM (inactive) | > 100 µM (inactive) | > 100 µM (inactive) | > 100 µM (inactive) | > 100 µM (inactive) | > 100 µM (inactive) | > 100 µM (inactive) | > 100 µM (inactive) | – | > 100 µM (inactive) | > 100 µM (inactive) |
| CSc1nc(SC)c2c(CO)c(Br)n(Cc3ccccc3)c2n1 | 15.3 µM (inactive) | 26.4 µM (inactive) | 29.2 µM (inactive) | 11.3 µM (inactive) | > 100 µM (inactive) | > 100 µM (inactive) | 47.9 µM (inactive) | 16.3 µM (inactive) | 70 µM (inactive) | 30.7 µM (inactive) | 24.6 µM (inactive) | 19.1 µM (inactive) | 10 µM (inactive) | 20.7 µM (inactive) | > 100 µM (inactive) | 20.2 µM (inactive) | 17.5 µM (inactive) | 29.5 µM (inactive) | 21.8 µM (inactive) | 12.6 µM (inactive) |
| Cc1cc2c(c(O)c1-c1c(C)cc(O)c3c1C(=O)C=CC3=O)C(=O)C=CC2=O | 0.388 µM (active) | 1.21 µM (inactive) | 1.59 µM (inactive) | 20.2 µM (inactive) | < 0.01 µM (active) | 0.043 µM (active) | 0.369 µM (active) | 1.92 µM (inactive) | 10.3 µM (inactive) | 3.05 µM (inactive) | 0.966 µM (active) | 3.07 µM (inactive) | 0.631 µM (active) | 16.7 µM (inactive) | < 0.01 µM (active) | 15.6 µM (inactive) | 2.13 µM (inactive) | 2.08 µM (inactive) | 0.855 µM (active) | 4.03 µM (inactive) |
| CSC1=C(C#N)C(=O)N(c2ccc(C)cc2)C(=O)C1C#N (stereo unspecified) | > 100 µM (inactive) | > 100 µM (inactive) | > 100 µM (inactive) | > 100 µM (inactive) | > 100 µM (inactive) | > 100 µM (inactive) | > 100 µM (inactive) | > 100 µM (inactive) | > 100 µM (inactive) | > 100 µM (inactive) | > 100 µM (inactive) | 28.6 µM (inactive) | 30.9 µM (inactive) | > 100 µM (inactive) | > 100 µM (inactive) | > 100 µM (inactive) | > 100 µM (inactive) | > 100 µM (inactive) | > 100 µM (inactive) | > 100 µM (inactive) |
| COc1ccc(Cn2c(=O)c(OC)c(C)c3cc4ccccc4cc32)cc1 | 34.6 µM (inactive) | 18.6 µM (inactive) | 6.55 µM (inactive) | 45.7 µM (inactive) | 20 µM (inactive) | 21.3 µM (inactive) | 94.6 µM (inactive) | 39 µM (inactive) | 26.5 µM (inactive) | 22.3 µM (inactive) | 33.7 µM (inactive) | 40.9 µM (inactive) | 37.3 µM (inactive) | 32.3 µM (inactive) | 23.3 µM (inactive) | 42.3 µM (inactive) | 13.2 µM (inactive) | 19.9 µM (inactive) | 25.7 µM (inactive) | 23 µM (inactive) |
| CC(C#N)(NO)C(C)(C#N)NO (stereo unspecified) | – | > 100 µM (inactive) | > 100 µM (inactive) | 97.9 µM (inactive) | > 100 µM (inactive) | > 100 µM (inactive) | > 100 µM (inactive) | > 100 µM (inactive) | > 100 µM (inactive) | > 100 µM (inactive) | > 100 µM (inactive) | > 100 µM (inactive) | > 100 µM (inactive) | – | > 100 µM (inactive) | > 100 µM (inactive) | > 100 µM (inactive) | > 100 µM (inactive) | > 100 µM (inactive) | > 100 µM (inactive) |
